{"source": "paper PMC10570959", "about": "(The Journal of Biological Chemistry, 2023)", "key": {"RmNMT [1]": {"tested_on": "RmNMT", "type": "biochemical, Rhinella marina", "conditions": "for Higher conversion of substrate by RmNMT compared with OcINMT: from Table 1 activities"}, "[2]": {"conditions": "radiolabeled compound injected into rabbits; result in words; cited from earlier work"}, "HsINMT": {"tested_on": "HsINMT", "conditions": "read-out: Km (HsINMT); cited from earlier work"}, "OcINMT": {"tested_on": "OcINMT", "conditions": "cited from earlier work"}, "MAO-A": {"tested_on": "MAO-A", "conditions": "rat liver mitochondria; result in words; cited from earlier work"}, "RmNMT [3]": {"tested_on": "RmNMT", "type": "biochemical, Rhinella marina", "conditions": "30 °C, 10 min"}, "5-HT1A receptor": {"target": "T1, 5-HT1A receptor (Homo sapiens, UniProt P08908)", "T1 sequence (P08908 1-422)": "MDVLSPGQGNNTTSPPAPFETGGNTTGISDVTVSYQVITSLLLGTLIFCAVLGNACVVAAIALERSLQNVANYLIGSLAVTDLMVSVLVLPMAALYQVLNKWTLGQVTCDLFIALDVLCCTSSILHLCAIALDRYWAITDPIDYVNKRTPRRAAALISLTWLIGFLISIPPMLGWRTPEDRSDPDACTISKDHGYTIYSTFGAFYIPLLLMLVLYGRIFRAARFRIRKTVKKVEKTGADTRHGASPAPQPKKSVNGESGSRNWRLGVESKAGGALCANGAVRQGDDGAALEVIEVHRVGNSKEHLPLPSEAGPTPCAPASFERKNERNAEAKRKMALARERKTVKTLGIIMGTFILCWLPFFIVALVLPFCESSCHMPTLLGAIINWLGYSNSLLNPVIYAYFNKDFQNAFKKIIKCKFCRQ", "assay": "Radioligand competition assay", "type": "binding", "conditions": "0.5 nM [3H]8-hydroxy-DPAT; mean ± SD of three independent replicates"}, "[4]": {"assay": "In vitro metabolic stability in human liver microsomes", "type": "in vitro ADME", "conditions": "5 μM compound, 400 μg/ml HLM, 37 °C, timepoints 0, 30, 60 min; result in words"}, "5-HT2A receptor": {"target": "5-HT2A receptor (Homo sapiens, UniProt P28223)", "sequence (P28223 whole entry)": "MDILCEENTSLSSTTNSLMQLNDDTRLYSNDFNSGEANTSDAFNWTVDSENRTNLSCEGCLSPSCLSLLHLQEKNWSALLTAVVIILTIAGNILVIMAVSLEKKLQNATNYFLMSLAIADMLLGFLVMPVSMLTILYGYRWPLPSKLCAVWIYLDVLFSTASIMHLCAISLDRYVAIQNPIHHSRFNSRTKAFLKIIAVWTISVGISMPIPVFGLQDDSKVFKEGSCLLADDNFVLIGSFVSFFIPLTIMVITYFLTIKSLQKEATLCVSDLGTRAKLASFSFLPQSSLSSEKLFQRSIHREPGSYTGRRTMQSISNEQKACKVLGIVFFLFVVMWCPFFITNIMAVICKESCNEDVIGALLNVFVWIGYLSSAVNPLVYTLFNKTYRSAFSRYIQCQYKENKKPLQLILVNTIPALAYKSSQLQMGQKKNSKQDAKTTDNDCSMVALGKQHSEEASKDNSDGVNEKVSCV", "conditions": "read-out: 5-HT2A Ki; cited from earlier work"}, "mice": {"tested_on": "mice", "conditions": "result in words; cited from earlier work"}, "[5]": {"conditions": "standard in vitro assay, 1 h, 37 °C, mean ± SD, triplicate"}}}
{"smiles": "NCCc1c[nH]c2ccccc12", "note": "[Tryptamine]", "values": [{"measurement": "Higher conversion of substrate by RmNMT compared with OcINMT", "setting": "RmNMT [1]", "value": 18, "unit": "fold"}, {"measurement": "RmNMT enzyme activity, product N-Methyltryptamine", "setting": "RmNMT [1]; [5]", "value": "3.51 ± 0.079"}, {"measurement": "Persistence in brain tissue", "setting": "[2]", "value": "disappeared within minutes"}, {"measurement": "Km", "setting": "HsINMT", "value": 2920, "unit": "µM"}, {"measurement": "Km", "setting": "OcINMT; read-out: Km (OcINMT)", "value": 270, "unit": "µM"}, {"measurement": "Activity as MAO-A substrate", "setting": "MAO-A", "value": "substrates of MAO-A"}, {"measurement": "kcat (RmNMT)", "setting": "RmNMT [3]", "value": 0.00052, "unit": "s⁻¹"}]}
{"smiles": "Cc1[nH]c2ccccc2c1CCN", "note": "[2-Methyltryptamine]", "values": [{"measurement": "5-HT1A Ki", "setting": "5-HT1A receptor", "value": "micromolar levels"}, {"measurement": "Metabolic stability during exposure to human liver microsome", "setting": "[4]", "value": "showed greater stability"}]}
{"smiles": "COc1ccc2c(CCN(C)C)c[nH]c2c1", "note": "[6-methoxy-DMT]", "values": [{"measurement": "Ki", "setting": "5-HT2A receptor", "value": 7300, "unit": "nM"}]}
{"smiles": "CN(C)CCc1c[nH]c2cc(F)cc(O)c12", "note": "[6-fluoro-psilocin]", "values": [{"measurement": "Ki", "setting": "5-HT2A receptor", "value": 13, "unit": "nM"}]}
{"smiles": "CNCCc1c[nH]c2ccccc12", "note": "[N-Methyltryptamine]", "values": [{"measurement": "Higher conversion of substrate by RmNMT compared with OcINMT", "setting": "RmNMT [1]", "value": 27, "unit": "fold"}, {"measurement": "RmNMT enzyme activity, product DMT", "setting": "RmNMT [1]; [5]", "value": "10.44 ± 0.46"}, {"measurement": "Activity as MAO-A substrate", "setting": "MAO-A", "value": "substrates of MAO-A"}]}
{"smiles": "CN(C)CCc1c[nH]c2ccccc12", "note": "[DMT, N,N-dimethyltryptamine]", "values": [{"measurement": "Ki", "setting": "5-HT2A receptor", "value": 1200, "unit": "nM"}, {"measurement": "Inhibition of OcINMT by its product", "setting": "OcINMT; result in words", "value": "noncompetitively inhibited"}, {"measurement": "Activity as MAO-A substrate", "setting": "MAO-A", "value": "could not be detected"}]}
{"smiles": "CN(C)CCc1c[nH]c2ccc(O)cc12", "note": "[Bufotenin, 5-hydroxy-DMT]", "values": [{"measurement": "Metabolic stability during exposure to human liver microsome", "setting": "[4]", "value": "degraded faster than psilocin"}]}
{"smiles": "NCCc1c[nH]c2cccc(O)c12", "note": "[4-Hydroxytryptamine]", "values": [{"measurement": "Head-twitch response", "setting": "mice", "value": "does not induce head-twitch response"}]}
{"smiles": "NCCc1c[nH]c2ccc(O)cc12", "note": "[5-Hydroxytryptamine (serotonin), 5-Hydroxytryptamine]", "values": [{"measurement": "RmNMT enzyme activity, product Bufotenin", "setting": "RmNMT [1]", "value": "4.65 ± 0.112"}]}
